Assay results as given in article PMC9458250, “6-Formyl Umbelliferone, a Furanocoumarin from Angelica decursiva L., Inhibits Key Diabetes-Related Enzymes and Advanced Glycation End-Product Formation” (Molecules, 2022).

Assays:
[1] = test system: advanced glycation end-product (AGE) formation; assay: Inhibition of fluorescent AGE formation in HSA-glucose-fructose system; parameters: species or system human; details: for percentage of inhibition of AGE formation: week 4 of incubation
Protocol: The formation of glycated HSA-fructose-glucose was examined according to a previously published method. To prepare the AGE reaction solution, 20 mg/mL HSA in 50 mM sodium phosphate buffer (pH 7.4) was added to 0.2M fructose, 0.2 M glucose, and 0.02% sodium azide to prevent bacterial growth. The reaction mixture (3.8 mL) was then mixed with 200 μL of various concentrations of 6-FU and aminoguanidine hydrochloride dissolved in 10% DMSO. The control was prepared using HSA and sugars, and a blank was prepared using only HSA in the same buffer. The reaction mixtures were incubated at 37 °C for 4 weeks. Aliquots of the reaction mixtures were then assayed to determine the presence of AGEs.
The ability of the isolates to inhibit AGE formation was evaluated according to a previously published method with slight modifications. To prepare the AGE reaction solution, 20 mg/mL HSA in 50mM sodium phosphate buffer (pH 7.4) was added to 0.2M fructose and 0.2 M glucose, along with 0.02% sodium azide to prevent bacterial growth. The reaction mixture (950 μL) was then combined with various concentrations of 6-FU (50 μL, test concentration ranging from 0.8 to 100 μM) dissolved in 10% DMSO. After incubating the mixture at 37 °C, AGE formation in the aliquots was determined at weekly intervals using a spectrofluorometric detector (FLx800 microplate fluorescence reader, Bio-Tek Instrument, Inc., Winooski, VT, USA) with excitation and emission wavelengths of 350 nm and 450 nm, respectively. The nucleophilic hydrazine compound aminoguanidine was used as a reference in the AGE assay.

[2] = biological target: T1, human recombinant aldose reductase (HRAR) (Homo sapiens, UniProt P15121); assay: HRAR inhibition assay (NADPH absorption decrease, DL-glyceraldehyde substrate); format: biochemical
T1 construct: purchased Wako Chemicals (Osaka, Japan)
Protocol: HRAR inhibition was examined as described by Ali et al.. Briefly, AR activity was determined by measuring the decrease in NADPH absorption at 340 nm over a period of 1 min on an Ultrospec®2100pro UV/Visible spectrophotometer (Cytiva, Buckinghamshire, UK). SWIFT II Applications software (Amersham Biosciences, NJ, USA) was used for all data analyses. […] The inhibition percentage (%) was calculated as described in the RLAR assay, except that the DA sample per min value represented the reduction in absorbance for 1 min with the test samples and substrate. The ability of each sample to inhibit HRAR was expressed as an IC50 value (µM), which was calculated from the log-dose inhibition curve.
(§1) To determine the inhibition mechanism, enzymatic inhibition at various concentrations of 6-FU was evaluated by monitoring the effects of different concentrations of substrates via Dixon plots. Dixon plots for PTP1B inhibition by 6-FU were obtained in the presence of 0.5, 1, and 2 mM pNPP. The test concentrations of 6-FU in the PTP1B kinetic analysis were 0, 1.25, 2.5, 5.0, and 10 µM. Dixon plots for α-glucosidase inhibition by 6-FU were performed in the presence of 0.625, 1.25, and 2.5 mM pNPG. The test concentrations of 6-FU used in the α-glucosidase kinetic analysis were 0, 31.25, 62.5, 125, and 250 µM. Both enzymatic procedures followed the PTP1B and α-glucosidase assay methods. Dixon plots for HRAR inhibition by 6-FU were performed in the presence of 5, 10, and 20 mM of DL-glyceraldehyde as the substrate. The test concentrations of 6-FU used in the HRAR kinetic analysis were 0, 0.08, 0.4, 2, and 10 µM. The Dixon plot is a graphical method [1/enzyme velocity (1/V) against inhibitor concentration (I)] for determining the type of enzyme inhibition and was used to determine the dissociation or inhibition constant (Ki) for the enzyme–inhibitor complex. Thus, the type of enzyme inhibition was determined by interpreting the Lineweaver–Burk plots, and the inhibition constants (Ki) were determined by interpreting the Dixon plots.

Yeast α-glucosidase = Yeast α-glucosidase (Saccharomyces cerevisiae, UniProt P53341); assay: α-glucosidase inhibitory assay using pNPG; format: biochemical; details: Dixon and Lineweaver-Burk plots
Protocol: as §1

C2C12 cells = assay: C2C12 cell viability (MTT assay); format: cell-based; details: 24 h, up to 40 μM (tested up to 80 μM)
Protocol: The C2C12 cell line (skeletal muscle cells) was purchased from the American Type Culture Collection (Manassas, VA, USA). The C2C12 cells were cultured at 37 °C in DMEM supplemented with 10% FBS and P/S (Hyclone, Mordialloc, VIC, Australia) in a humidified atmosphere with 5% CO2. The tetrazolium dye colorimetric test (MTT) was used to determine cell viability. First, the C2C12 cells were cultured in 96-well plates (2 × 10^5 cells/well) for 24 h. After they reached 90% confluence, they were treated with various concentrations of 6-FU. After 24 h of incubation, the MTT reagent was added to each well, and the plate was incubated for 2 h at 37 °C. The media were removed, and the wells were washed twice with PBS (pH 7.4). To measure the proportion of surviving cells, the medium was replaced with 100 μL DMSO (100%). The resulting absorbance values were measured at 570 nm with a microplate reader (Molecular Devices, Sunnyvale, CA, USA).

[3] = test system: PTP1B expression in insulin-resistant C2C12 cells; assay: PTP1B expression by Western blot; format: cell-based; details: 40 μM, 24 h
Protocol: Insulin-resistant C2C12 cells (2 × 10^5 cells/well) in 6-well plates were treated with different concentrations of 6-FU for 24 h. After stimulation with 100 nM insulin for 30 min at 37 °C, the cells were washed three times with ice-cold PBS, collected, and lysed with sample buffer (50 mM HEPES, pH 7.5, 150 mM NaCl, 2.5 mM EDTA, 0.5% NP40, 1 mM PMSF, 1 mM DTT, 0.2% aprotinin, 0.5% leupeptin, 20 mM NaF, and 1 mM Na3VO4) on ice. After incubation for 30 min, the insoluble materials were removed by centrifugation at 25,000× g for 20 min. The protein concentrations were determined using a modified Bradford protein assay kit. Total protein (50 μg) was subjected to dodecyl sulfate–polyacrylamide gel electrophoresis and transferred to a polyvinylidene difluoride membrane. The membranes were blocked in blocking buffer (5% skim milk in Tris-buffered saline containing 0.1% Tween 20 (TBST)) and incubated with primary antibodies overnight at 4 °C, followed by incubation with appropriate secondary antibodies for 4 h at room temperature. The membranes were washed three times with TBST for 40 min. The bands were detected using Super Signal West Pico chemiluminescence substrate (Pierce, Rockford, IL, USA) according to the manufacturer’s instructions. The immunoreactive protein bands were detected using an Odyssey scanning system (LI-COR, Lincoln, NE, USA). […]

[4] = biological target: T2, PTP1B (human recombinant) (Homo sapiens, UniProt P18031); assay: PTP1B inhibition assay using pNPP; format: biochemical
T2 construct: purchased Biomol International LP (Plymouth Meeting, PA, USA)
T2 sequence (P18031 1-435): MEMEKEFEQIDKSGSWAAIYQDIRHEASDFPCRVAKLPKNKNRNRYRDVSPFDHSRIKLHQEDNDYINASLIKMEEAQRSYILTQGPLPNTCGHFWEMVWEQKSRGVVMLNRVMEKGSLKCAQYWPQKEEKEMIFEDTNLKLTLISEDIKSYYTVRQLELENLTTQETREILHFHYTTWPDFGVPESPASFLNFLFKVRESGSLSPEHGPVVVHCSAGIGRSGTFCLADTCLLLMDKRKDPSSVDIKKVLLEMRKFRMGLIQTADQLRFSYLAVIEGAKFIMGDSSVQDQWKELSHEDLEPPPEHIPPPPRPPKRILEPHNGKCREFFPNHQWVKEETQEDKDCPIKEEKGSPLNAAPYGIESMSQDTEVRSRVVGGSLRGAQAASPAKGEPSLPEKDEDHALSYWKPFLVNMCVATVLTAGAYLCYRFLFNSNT
Protocol: The PTP1B inhibitory activity was evaluated using pNPP according to the modified procedure reported by Ali et al..
as §1

[5] = test system: insulin-resistant C2C12 skeletal muscle cells; assay: 2-NBDG glucose uptake assay; format: cell-based
Protocol: The C2C12 cells were cultured in 96-well plates (2 × 10^5 cells/well) with DMEM containing 10% FBS and 1% P/S at 37 °C and exposed to a 5% CO2 atmosphere. When the cells reached confluence, they were subjected to differentiation in DMEM supplemented with 2% horse serum for 5 days. Then the cells were starved in low-glucose serum-free DMEM for 24 h. Subsequently, the 2-NBDG assay was performed to evaluate glucose uptake. The cells were treated with various concentrations of 6-FU and insulin (100 nM) for 12 h, followed by 20 μM 2-NBDG for 24 h. To stop the response, the cells were washed three times with ice-cold PBS, and then the 2-NBDG fluorescence intensity was measured on a microplate reader (FL × 800, Bio-Tek Instruments Inc., Winooski, VT, USA) at 490 nm (excitation) and 535 nm (emission). Five replicate wells were established, and each experiment was replicated three times. Rosiglitazone was used as the positive control.

[6] = Dixon and Lineweaver-Burk plots

Yeast α-glucosidase, sequence (P53341 whole entry): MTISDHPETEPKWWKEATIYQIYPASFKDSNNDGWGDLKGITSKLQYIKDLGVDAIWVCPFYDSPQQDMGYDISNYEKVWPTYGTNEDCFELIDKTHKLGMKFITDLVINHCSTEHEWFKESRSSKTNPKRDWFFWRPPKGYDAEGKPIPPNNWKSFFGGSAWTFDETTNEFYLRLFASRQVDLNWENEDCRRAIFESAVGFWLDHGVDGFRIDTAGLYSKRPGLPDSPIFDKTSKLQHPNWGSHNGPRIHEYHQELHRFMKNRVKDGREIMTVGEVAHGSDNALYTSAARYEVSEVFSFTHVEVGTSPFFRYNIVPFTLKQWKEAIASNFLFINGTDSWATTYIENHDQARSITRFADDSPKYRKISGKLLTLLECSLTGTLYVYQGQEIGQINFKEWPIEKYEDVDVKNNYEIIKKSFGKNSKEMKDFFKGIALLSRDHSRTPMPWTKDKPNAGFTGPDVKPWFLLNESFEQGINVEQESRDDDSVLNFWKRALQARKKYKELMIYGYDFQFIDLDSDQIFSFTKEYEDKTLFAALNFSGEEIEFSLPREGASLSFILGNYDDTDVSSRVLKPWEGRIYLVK

Which “percentage of inhibition of AGE formation” value ([1]; 100 μM) does the source give for `N=C(N)NN` [Aminoguanidine, aminoguanidine, reference compound] here?
The value was 57.23%.

`O=C(O)Cn1c(=O)n(Cc2ccc(Br)cc2F)c(=O)c2ccc(Cl)cc21` [Zenarestat, zenarestat, reference compound] was tested. Which IC50 [2] did it give?
The IC50 was 630 ± 10 nM.

Which “Inhibition type α-Glucosidase” value (Yeast α-glucosidase) does the source give for `O=Cc1cc2ccc(=O)oc2cc1O` [6-FU, 6-formyl umbelliferone] here?
The value was “Mixed”.

And the “cytotoxicity (cell viability, MTT)” value (C2C12 cells)?
Its value is “not cytotoxic”.

And the IC50 [2]?
Its IC50 is 5110 ± 210 nM.

What about the Ki [2] of the same compound?
The Ki was 4.87 µM.

And the “Inhibition type HRAR” value [2, 6]?
Its value is “Mixed”.

And the PTP1B expression level [3]?
Its PTP1B expression level is “decreased”.

And the IC50 [4]?
The IC50 was 1130 ± 120 nM.

And the Ki [4]?
The Ki was 1720 nM.

And the “Inhibition type PTP1B” value [4, 6]?
The value was “Competitive”.

What about the “insulin-stimulated 2-NBDG uptake” value ([5]; 10, 20, and 40 μM, compared with the control) of the same compound?
Its value is “significantly enhanced”.

What about the IC50 ([1]; AGE formation, mean ± SEM of triplicates) of the same compound?
The IC50 was 2150 ± 130 nM.

And the “percentage of inhibition of AGE formation” value ([1]; 0.8 μM)?
The value was 24.04%.

What about the “percentage of inhibition of AGE formation” value ([1]; 4.0 μM) of the same compound?
Its value is 55.73%.

And the “percentage of inhibition of AGE formation” value ([1]; 20 μM)?
The value was 64.18%.

What about the “percentage of inhibition of AGE formation” value ([1]; 100 μM) of the same compound?
The value was 82.60%.

With `CN(CCOc1ccc(CC2SC(=O)NC2=O)cc1)c1ccccn1` (stereo not drawn) [rosiglitazone, reference compound] as the compound, how does the insulin-stimulated glucose uptake ([5]; 5 μM) read?
Its insulin-stimulated glucose uptake is “significantly increased”.
